# Experiment: Moisture absorption test
# Assay type: physicochemical
# Details: 40° C. and 75% RH; nonhygroscopic defined in b24 as moisture absorption 2% or less after 24 hours
# From the text: The term “crystalline” used in the specification encompasses a substance containing a small amount of an amorphous part, as well as a substance substantially consisting completely of crystals. However, calcium pantothenate in a completely amorphous state (the state which gives substantially no detectable peak by the powder X-ray diffraction analysis) is excluded. The term “crystalline” should not be interpreted to exclude a substance containing a small amount of an amorphous part. Further, the term “amorphous” means a state in which no peak is substantially detectable by powder X-ray diffraction analysis. The term “nonhygroscopic” used in the specification means that a moisture absorption amount is 2% or less, preferably 1% or less, after 24 hours at 40° C. under a relative humidity of 75%. A moisture absorption test was performed under conditions of 40° C. and 75% RH for the PC consisting of α-form crystals obtained in Example 1 and the PC consisting of β-form crystals obtained in Example 7. A similar test was performed for the amorphous PC used in Example 1 as a control.
substance,measurement,value
"monocalcium bis[(R)-N-(2,4-dihydroxy-3,3-dimethylbutyryl)-β-alaninate]",hygroscopicity (verdict of moisture absorption test),nonhygroscopic

# Source: patent publication US20040049075A1, “Process for the production of calcium pantothenate” (priority 2000, published 2004)
